Test results as given in patent US20190297888A1, “FUNGICIDAL COMPOUNDS AND MIXTURES FOR FUNGAL CONTROL IN CEREALS” (Dow AgroSciences LLC, priority 2016, published 2019).

Tests used:
[1] = test system: Puccinia triticina (PUCCRT); assay: Field assessment of Compound I and penthiopyrad on brown rust of wheat (AUDPC % control); type: in vivo; conditions: AUDPC-based, 2 field trials
Description: (§1) Treatments consisting of the compound of Formula I and fungicide compound penthiopyrad were applied either using individually or as a two-way mixture of penthiopyrad with the compound of Formula I. The compound of Formula I was applied with Agnique BP-420 (50% w/w at 0.3% v/v) at 75 and 150 g ai/ha and Penthiopyrad (Vertisan) was applied at 125 and 200 g ai/ha. Commercial standards used in the studies were Fluxapyroxad (Imtrex), applied at 100 g ai/ha, and Metconazole+Fluxapyroxad (Librax), applied at 161 g ai/ha.
Fungicidal treatments containing the compound of Formula I and penthiopyrad, either individually or as a two-way mixture, were assessed against brown rust of wheat (PUCCRT) in two separate field trials. In the first trial, fungicidal treatments were applied at B37-39 (protectant, approximately 0% infection at application) growth stages of wheat (TRZAW, MV Vanek variety) under natural infection of brown rust. The treatment was part of an experimental trial designed as a randomized complete block with four replications and a plot of approximately 2×3 m. Fungicidal treatments were applied at a water volume of 200 L/ha, using a backpack plot sprayer with a TEEJET QJ90-2XTT110 015 Nozzle.
In the second trial, fungicidal treatments containing the compound of Formula I and penthiopyrad, either individually or as a two-way mixture, were applied at B33 (curative, approximately 6.6% infection at application) growth stage of wheat (TRZAW, Miradoux variety) under natural infection of brown rust. The treatments were part of an experimental trial designed as a randomized complete block with four replications and a plot of approximately 2×3 m. Fungicidal treatments were applied at a water volume of 200 L/ha, using a backpack plot sprayer with a HARDI MD 110-02 Nozzle.
(§2) Disease severity (percentage of visual diseased foliage on whole plot or leaves) in both field trials was recorded following EPPO PP1/26 guideline prescriptions. Area under the disease progress curve (AUDPC) was calculated for each plot in both trials using the sets of recorded severity data. Relative AUDPC (% control based on AUDPC) was calculated as percent of the nontreated control. Final results for the control of brown rust of wheat by the compound of Formula I, penthiopyrad and mixtures are reported as an average of the relative AUDPC calculated over all […] field trials. Statistical analysis was done according to ANOVA and Tukey's test (p=0.10).

[2] = test system: Puccinia striiformis (PUCCST); assay: Field assessment of Compound I and penthiopyrad on yellow rust of wheat (AUDPC % control); type: in vivo; conditions: AUDPC-based, 2 field trials
Description: as §1
Fungicidal treatments containing the compound of Formula I and penthiopyrad, either individually or as a two-way mixture, were assessed against yellow rust of wheat (PUCCST) in two separate field trials. In the first trial, fungicidal treatments were applied twice at B31-32 (early curative, 2% infection at application on L3) and B37-39 (0% infection at application on L) growth stages of winter wheat (TRZAW, Fairplay variety). The treatments were part of an experimental trial designed as a randomized complete block with four replications and a plot of approximately 1×6 m. Treatments were applied at water volume of 200 L/ha, using a backpack plot sprayer (BKPCKENG, F110-015 Hardi (3) Flat fan nozzle) and pressurized at 200 kPa.
In the second trial, fungicidal treatments containing the compound of Formula I and penthiopyrad, either individually or as a two-way mixture, were applied twice at B31-32 (early curative, 5% infection on L5 at application) and B37-39 (early curative, 5% infection on L1 and L2 at application) growth stages of wheat (TRZAW, Torch variety). The treatment was part of an experimental trial designed as a randomized complete block with four replications and a plot of approximately 2×3 m. Treatments were applied at water volume of 200 L/ha, using a backpack precision plot sprayer (BKCKAIR, F110-03 Hypro (4) Flat fan nozzle) and pressurized at 300 kPa.
as §2, with “yellow” for “brown”

## N#Cc1ccc(Oc2ccc(C(F)(F)C(O)(Cn3ncnc3S)c3ccc(F)cc3F)nc2)cc1 (stereo not shown) [Compound I, 4-((6-(2-(2,4-difluorophenyl)-1,1-difluoro-2-hydroxy-3-(5-mercapto-1H-1,2,4-triazol-1-yl)propyl)pyridin-3-yl)oxy)benzonitrile]
[1]; rate 75 g ai/ha
  PUCCRT % Control: 93.5%
[1]; rate 150 g ai/ha
  PUCCRT % Control: 94.6%
[2]; rate 75 g ai/ha
  PUCCST % Control: 72.8%
[2]; rate 150 g ai/ha
  PUCCST % Control: 76.4%
